Measurements taken from US9260382B2, “Methods of reducing virulence in bacteria” (priority 2010, dated 2016).

System: hrpA promoter (T3SS)
Assay: GFP reporter plasmid phrpA, flow cytometry (FACS) of hrpA promoter activity
Format: cell-based, Dickeya dadantii 3937
Details: D. dadantii 3937 (phrpA), MM + 100 μM compound, 12 h
Method: FACS analysis of promoter activity of dspE, hrpA, hrpL, hrpN, and hrpS was carried out as described (Peng et al., 2006). Briefly, the wild-type Ech3937 and the mutant strains carrying the promoter reporter plasmid were grown on LB broth at 28° C. overnight and transferred to appropriate media. For FACS analysis, samples were collected by centrifugation, washed with 1× phosphate buffer saline (PBS) at 13,000 rpm for 1 min, and re-suspended in 1×PBS to ca 10^6 CFU/ml prior to being run in a FACS Calibur flow cytometer (BD Biosciences, CA). Three replicates were performed for each treatment.
To identify potential compounds that repress activation of T3SS, analogs and isomers of TCA and intermediates of salicylic acid and phenypropanoid biosynthesis pathways in plants were further screened for their effect on Ech3937 hrpA expression by flow cytometry (Table 9). A green fluorescent protein (GFP) reporter plasmid phrpA (pProbe-AT derivative with PCR fragment containing hrpA promoter region) was constructed, resulting in a transcriptional fusion of hrpA promoter with GFP gene. Bacterial cells containing phrpA plasmid were grown in MM supplemented with 0.1 mM of each compound. GFP intensity, which is a measurement of hrpA promoter activity, was measured by flow cytometry.
hrpA encodes the T3SS pilus required for protein translocation into plant cells. To test for an inhibitory effect on T3SS hrpA expression, the reporter plasmid phrpA was used to measure the effects of these compounds on hrpA expression. The reporter plasmid phrpA encodes a transcriptional fusion of the hrpA promoter controlling expression of green fluorescent protein (gfp). 50 μL of bacterial suspension of D. dadantii 3937 carrying the hrpA reporter (optical density at 600 nm OD600=1.0) was used as the initial inoculum and added to 5 mL of MM or MM supplemented with 100 μM of one of the compounds. The expression level of hrpA of these bacterial cells was measured by measuring GFP intensity of gated populations of the bacterial cells by flow cytometry and analyzed with Cell Quest software (BD Biosciences, San Jose, Calif.). The fluorescence intensities were an average GFP fluorescence intensity of total bacterial cells. Compounds were assayed two different times (12 and 24 h of bacterial growth) with T3SS minimal media (MM) as the control treatment for each set of experiment. Values presented in Table 14 are mean fluorescence intensity of GFP, representative of two experiments, presented as the average of three replicates with standard deviation (SD).

Row | Structure (SMILES) | mean fluorescence intensity of GFP, hrpA expression
1 | O=P(O)(O)/C=C/c1ccc(O)cc1 [Compound 115, trans-2-(4-Hydroxyphenyl)-vinylphosphonic acid] | 57.9 ± 1.6
2 | O=C(O)/C=C/c1ccc(F)cc1 [Compound 110, trans-4-Fluorocinnamic acid] | 63.4 ± 8.0
3 | O=C(O)[C@@H]1C[C@H]1c1ccc(O)cc1 (relative stereo) [Compound 107, trans-2-(4-Hydroxyphenyl)-1-cyclopropanecarboxylic acid] | 45.9 ± 2.7

Same assay, conditions: D. dadantii 3937 (phrpA), MM + 100 μM compound, 24 h

Row | Structure (SMILES) | mean fluorescence intensity of GFP, hrpA expression
4 | O=P(O)(O)/C=C/c1ccc(O)cc1 [Compound 115, trans-2-(4-Hydroxyphenyl)-vinylphosphonic acid] | 79.6 ± 3.3
5 | O=C(O)/C=C/c1ccc(F)cc1 [Compound 110, trans-4-Fluorocinnamic acid] | 183.8 ± 19.2
6 | O=C(O)[C@@H]1C[C@H]1c1ccc(O)cc1 (relative stereo) [Compound 107, trans-2-(4-Hydroxyphenyl)-1-cyclopropanecarboxylic acid] | 122.1 ± 17.9

Same assay, conditions: D. dadantii 3937, reporter plasmid phrpA, 100 μM

Row | Structure (SMILES) | inhibitory activity on T3SS gene (hrpA) expression, in words
7 | O=P(O)(O)/C=C/c1ccc(O)cc1 [Compound 115, trans-2-(4-Hydroxyphenyl)-vinylphosphonic acid] | did not exhibit any activity
8 | O=C(O)/C=C/c1ccc(F)cc1 [Compound 110, trans-4-Fluorocinnamic acid] | inactive
9 | O=C(O)[C@@H]1C[C@H]1c1ccc(O)cc1 (relative stereo) [Compound 107, trans-2-(4-Hydroxyphenyl)-1-cyclopropanecarboxylic acid] | no inhibitory activity

System: exoS promoter (T3SS)
Assay: exoS promoter-gfp reporter pATexoS, flow cytometry
Format: cell-based, P. aeruginosa PA01
Details: screening for T3SS inhibitors
Method: (§1) To identify T3SS inhibitors of PA01, a promoter-probe vector pPROBE-AT containing the promoterless green fluorescent protein (gfp) gene was used to construct an exoS promoter-gfp plasmid reporter, pATexoS. PA01 containing pATexoS was cultured in T3SS-inducing medium containing dimethyl sulfoxide (DMSO; solvent of chemical compounds), or supplemented with 250 μM of each compound, and promoter activity was assessed at 6 h by measuring GFP intensity using flow cytometry. 101 compounds (58 synthesized and 43 commercially available) were screened. Compounds 027, 032, 101, and 149 repressed exoS expression at the final concentration of 250 μM by at least one standard deviation below the sample average (Z score≦−1) (FIG. 37 A-E). Z score (or standard score) indicates how many standard deviations an observation or datum is above or below the mean [z=(x−μ)/σ, where x is a raw score to be standardized, μ is the mean of the population, and σ is the standard deviation of the population].
(§2) To determine the effective concentration of compounds, the dose-dependent effect of potential inhibitors on exoS expression and bacterial growth were tested. P. aeruginosa cells carrying pATexoS were pre-cultured in LB supplemented with 200 mM NaCl and transferred to fresh LB with 200 mM NaCl, 10 mM NTA, and various concentrations of compounds (20, 50, 100, and 250 μM) or DMSO for 6 h. […] At 50 μM dosage, both 027 and 101 inhibited exoS expression at similar levels, and this inhibitory effect increased as compound concentration increased (FIG. 38A and Table 17). […] These inhibitions/inductions of exoS expression are caused by the shifting bacterial population between low-state expression cells and high-state expression cells (FIG. 40).

Row | Structure (SMILES) | effect on exoS promoter activity, in words
10 | CNC(=O)/C=C/c1ccc(O)cc1 [Compound 137, N-Methyl-4-hydroxycinnamamide] | little or no effect on exoS promoter activity
11 | O=C(/C=C/c1ccccc1)NO [Compound 132, trans-Cinnamohydroxamic acid] | little or no effect on exoS promoter activity

Same assay, conditions: structure-activity table; concentration not given

Row | Structure (SMILES) | Fraction of untreated control (exoS expression)
12 | CNC(=O)/C=C/c1ccc(O)cc1 [Compound 137, N-Methyl-4-hydroxycinnamamide] | 0.92 ± 0.05
13 | O=C(/C=C/c1ccccc1)NO [Compound 132, trans-Cinnamohydroxamic acid] | 1.53 ± 0.19

System: hrpA promoter (T3SS)
Assay: hrpA promoter-probe phrpA in Erwinia amylovora 273, flow cytometry
Format: cell-based
Details: Ea273 (phrpA), HIM + 100 μM compound, 6 h
Method: Wild-type Erwinia amylovora 273 was used in this study. The promoter-probe plasmid phrpA was constructed as follows. The hrpA promoter region of Erwinia amylovora 273 was amplified and cloned into pPROBE-NT to produce PhrpA. Plasmid PhrpA was electroporated into Erwinia amylovora 273. Expression of hrpA was analyzed using a FACS Calibur flow cytometer (BD Biosciences, CA). Wild-type Erwinia amylovora 273 containing phrpA was cultured in a hrp-inducing medium (HIM) containing dimethyl sulfoxide (DMSO; solvent of chemical compounds), or HIM supplemented with 100 μM of each compound, and promoter activity was assessed at 6 h and 9 h by measuring GFP intensity using flow cytometry (Table 19).

Row | Structure (SMILES) | Avg MFI ± SD, hrpA expression
14 | O=C(/C=C/c1cccc(Cl)c1)NO [Compound 149, trans-3-Chlorocinnamohydroxamic acid] | 31.2 ± 34.1
15 | OC/C=C/c1ccccc1 [Compound 032, Cinnamyl alcohol] | 681.6 ± 217.9
16 | CNC(=O)/C=C/c1ccc(O)cc1 [Compound 137, N-Methyl-4-hydroxycinnamamide] | 1064.1 ± 99.3
17 | O=C(/C=C/c1ccccc1)NO [Compound 132, trans-Cinnamohydroxamic acid] | 145.7 ± 1.2
18 | O=P(O)(O)/C=C/c1ccc(O)cc1 [Compound 115, trans-2-(4-Hydroxyphenyl)-vinylphosphonic acid] | 442.4 ± 2.3
19 | O=C(O)/C=C/c1ccc(F)cc1 [Compound 110, trans-4-Fluorocinnamic acid] | 279.2 ± 5.3
20 | O=C(O)[C@@H]1C[C@H]1c1ccc(O)cc1 (relative stereo) [Compound 107, trans-2-(4-Hydroxyphenyl)-1-cyclopropanecarboxylic acid] | 1464.3 ± 76.5

Same assay, conditions: Ea273 (phrpA), HIM + 100 μM compound, 9 h

Row | Structure (SMILES) | Avg MFI ± SD, hrpA expression
21 | O=C(/C=C/c1cccc(Cl)c1)NO [Compound 149, trans-3-Chlorocinnamohydroxamic acid] | 21.7 ± 28.5
22 | OC/C=C/c1ccccc1 [Compound 032, Cinnamyl alcohol] | 784.0 ± 53.3
23 | CNC(=O)/C=C/c1ccc(O)cc1 [Compound 137, N-Methyl-4-hydroxycinnamamide] | 1121.1 ± 52.1
24 | O=C(/C=C/c1ccccc1)NO [Compound 132, trans-Cinnamohydroxamic acid] | 147.8 ± 4.2
25 | O=P(O)(O)/C=C/c1ccc(O)cc1 [Compound 115, trans-2-(4-Hydroxyphenyl)-vinylphosphonic acid] | 553.3 ± 32.7
26 | O=C(O)/C=C/c1ccc(F)cc1 [Compound 110, trans-4-Fluorocinnamic acid] | 152.4 ± 0.7
27 | O=C(O)[C@@H]1C[C@H]1c1ccc(O)cc1 (relative stereo) [Compound 107, trans-2-(4-Hydroxyphenyl)-1-cyclopropanecarboxylic acid] | 1348.0 ± 82.6

System: P. aeruginosa
Assay: P. aeruginosa bacterial growth with compound
Format: cell-based, P. aeruginosa PA01
Details: P. aeruginosa, 250 μM
Method: as §1, §2

Row | Structure (SMILES) | effect on bacterial growth, in words
28 | O=C(/C=C/c1cccc(Cl)c1)NO [Compound 149, trans-3-Chlorocinnamohydroxamic acid] | minor alterations in bacterial growth
29 | OC/C=C/c1ccccc1 [Compound 032, Cinnamyl alcohol] | minor alterations in bacterial growth
